{"source": "the NIST ThermoML archive (doi:10.1016/j.fluid.2012.11.009)", "conditions": "Liquid, Distillation", "note": "Where “and” joins values, the source holds several entries; their conditions need not be identical. Equal entries are not always repeated. Numbers after ± are expanded uncertainties.", "data": [{"smiles": "CC(O)CNCC(C)O", "note": "(centres undefined) [N-(2-hydroxypropyl)-2-hydroxy-1-propanamine]", "values": [{"measurement": "vapor or sublimation pressure", "setting": "420 K", "value": "2.8 ± 2.4", "unit": "kPa"}, {"measurement": "vapor or sublimation pressure", "setting": "422 K", "value": "3 ± 2.4 kPa and 3.1 ± 2.4 kPa"}, {"measurement": "vapor or sublimation pressure", "setting": "428 K", "value": "4 ± 2.4 kPa and 4.4 ± 2.4 kPa"}, {"measurement": "vapor or sublimation pressure", "setting": "429 K", "value": "4.1 ± 2.4", "unit": "kPa"}, {"measurement": "vapor or sublimation pressure", "setting": "433 K", "value": "4.9 ± 2.4 kPa and 5.1 ± 2.4 kPa"}, {"measurement": "vapor or sublimation pressure", "setting": "437 K", "value": "5.9 ± 2.5", "unit": "kPa"}, {"measurement": "vapor or sublimation pressure", "setting": "440 K", "value": "6.8 ± 2.5", "unit": "kPa"}, {"measurement": "vapor or sublimation pressure", "setting": "441 K", "value": "7 ± 2.5", "unit": "kPa"}, {"measurement": "vapor or sublimation pressure", "setting": "444 K", "value": "7.8 ± 2.5 kPa and 7.9 ± 2.5 kPa"}, {"measurement": "vapor or sublimation pressure", "setting": "447 K", "value": "8.9 ± 2.5", "unit": "kPa"}, {"measurement": "vapor or sublimation pressure", "setting": "448 K", "value": "9.9 ± 2.5", "unit": "kPa"}, {"measurement": "vapor or sublimation pressure", "setting": "449 K", "value": "9.9 ± 2.5", "unit": "kPa"}, {"measurement": "vapor or sublimation pressure", "setting": "450 K", "value": "10.1 ± 2.6", "unit": "kPa"}, {"measurement": "vapor or sublimation pressure", "setting": "451 K", "value": "10.6 ± 2.5 kPa and 10.8 ± 2.5 kPa"}, {"measurement": "vapor or sublimation pressure", "setting": "452 K", "value": "10.9 ± 2.6", "unit": "kPa"}, {"measurement": "vapor or sublimation pressure", "setting": "453 K", "value": "11.9 ± 2.6", "unit": "kPa"}, {"measurement": "vapor or sublimation pressure", "setting": "454 K", "value": "11.8 ± 2.5 kPa and 11.9 ± 2.5 kPa"}, {"measurement": "vapor or sublimation pressure", "setting": "456 K", "value": "12.9 ± 2.6", "unit": "kPa"}, {"measurement": "vapor or sublimation pressure", "setting": "457 K", "value": "13.1 ± 2.6 kPa and 13.9 ± 2.6 kPa"}, {"measurement": "vapor or sublimation pressure", "setting": "458 K", "value": "13.9 ± 2.7 kPa and 14 ± 2.7 kPa"}, {"measurement": "vapor or sublimation pressure", "setting": "460 K", "value": "14.9 ± 2.7", "unit": "kPa"}, {"measurement": "vapor or sublimation pressure", "setting": "461 K", "value": "15.8 ± 2.6", "unit": "kPa"}, {"measurement": "vapor or sublimation pressure", "setting": "464 K", "value": "17.2 ± 2.6", "unit": "kPa"}, {"measurement": "vapor or sublimation pressure", "setting": "465 K", "value": "17.9 ± 2.6", "unit": "kPa"}]}]}
